{"source": "patent US4497826A", "about": "“Antiparkinsonian agent” (priority 1981, dated 1985)", "key": {"[1]": {"test_system": "parkinson's disease, freezing phenomenon", "test": "Clinical tests 1 to 7: treatment of parkinsonian patients with DL-threo-DOPS and a decarboxylase inhibitor", "format": "in vivo, human", "method": "The patient was a person suffering from parkinson's disease, having a disease history of 12 years after being affected by the disease. The primary clinical features were moderate rigidity of the four limbs and trunk were slight tremor. At about 6 years after the start of the disease, L-DOPA therapy was started.\n[…] The patient also had difficulty in writing.\nThis patient was then treated with DL-threo-DOPS in the following dosage, while keeping the administration of L-DOPA, the decarboxylase inhibitor (benserazide hydrochloride) and trihexyphenidyl hydrochloride at strictly the same dosage throughout the period of trial.\nDL-threo-DOPS was orally administered to the patient in the form of a capsule (DL-DOPS content: 200 mg) as follows:\nFirst to 2nd day 6 capsules per day\n3rd to 4th day 9 capsules per day\n5th to 6th day 12 capsules per day\nIt is noted that the decarboxylase inhibitor was not newly administered, because it was already administered together with L-DOPA.\nThe patient was a person suffering from parkinson's disease, whose main syndrome was \"pure akinesia\" which was first described by one of the present inventors [Narabayashi et al, Advances in Parkinsonism (eds., W. Birkmayer and O. Hornykiewicz) Roche Basle, pages 335-342 (1976)].\nBut on the other hand, motion such as going up or down the stairs could be done rather normally. Accordingly, such a syndrome is also called paradoxical kinesia.\nThe patient was treated with DL-threo-DOPS and a decarboxylase inhibitor (carbidopa) in the same dosage as in the above Clinical Test 1.\nIn the same manner, other patients as shown in Table 1 were treated with threo-DOPS and a decarboxylase inhibitor. The results are shown in Table 1 together with the data in the above Clinical Tests 1 and 2."}, "parkinson's disease [2]": {"test_system": "parkinson's disease", "test": "Speed of response (transit time between two switches), patient of Clinical Test 6", "format": "in vivo, human", "details": "Clinical Test 6 patient", "method": "The abscissa axis represents time (hour) after administration, and the ordinate axis means transit time (msec). The filled squares represent the transit time after DL-threo-DOPS intake and the open squares on the right side represent the transit time 2 hours after administation of L-DOPA, benserazid hydrochloride and trihexyphenidyl hydrochloride.\nIn order to quantitatively analyze the improvement of the syndromes in the above clinical tests, a speed of response was measured as to some patients in the tests.\nMethod for the measurement: The transit time was measured by using two switches (distance: 15 cm) in the same manner as described in Masao Kato and Kazuya Ando, \"Parkinson's Disease, Physiopathology and Therapy\", page 106, issued by Kanehara Shuppan on Mar. 31, 1978.\nResults: The data of the patient in the above Clinical Test 6 are shown in the attached FIG. 1. As is shown in the figure, when it was measured before administration of DL-threo-DOPS (600 mg) and carbidopa (60 mg) and 1, 3, 4, 6 and 8 hours after the administration, the effect peaked at 4 hours after administration, and at the same time, the transit time was shortened about 170 msec as compared to that before administration of the drugs."}, "parkinson's disease [3]": {"test_system": "parkinson's disease", "test": "Surface electromyogram, patient of Clinical Test 6", "format": "in vivo, human", "details": "DL-threo-DOPS 600 mg and carbidopa 60 mg, vs before administration", "method": "FIGS. 2, 3 and 4 each show surface electromyograms after DL-threo-DOPS and carbidopa were administered in comparison with the surface electromygrams before administration of the drugs. The data of FIG. 2 relate to a tremor of the right upper arm at static state. The data of FIG. 3 relate to tonic stretch reflexes of the extensor muscle of right forearm. The data of FIG. 4 indicate improvement of the skillfulness when flexion and extension movement at the right wrist joint was tried. […] E in FIG. 3 represents the period of passive stretching.\nAs to the patient in the above Clinical Test 6, the effect of administration of DL-threo-DOPS (600 mg) and carbidopa (60 mg) was measured by surface electromyogram, which was compared with that measured before the administration of drugs."}, "decarboxylase": {"test_system": "decarboxylase", "details": "DL-threo-DOPS vs DL-erythro-DOPS; printed as \"1/10 smaller\"; cited from earlier work"}, "parkinson's disease [4]": {"test_system": "parkinson's disease", "details": "human, 300 mg intravenous; cited from earlier work"}, "narcolepsy": {"test_system": "narcolepsy", "details": "six patients, 200 mg intravenous; cited from earlier work"}, "[5]": {"test": "Side effects in the clinical tests", "format": "in vivo, human"}, "[6]": {"test": "acute toxicity (LD50) in mice", "details": "mouse, in vivo"}, "[7]": {"test_system": "L-aromatic amino acid decarboxylase", "details": "cited from earlier work; for enzymatic decarboxylation of the stereoisomers: L- and D-, threo- and erythro-isomers; for nature of the norepinephrine formed: product of decarboxylation"}, "brain norepinephrine": {"test_system": "brain norepinephrine", "details": "rats, cited from earlier work"}, "heart norepinephrine": {"test_system": "heart norepinephrine", "details": "rats, combination with decarboxylase inhibitor; cited from earlier work"}, "[8]": {"details": "Clinical Test 1, 3rd day, with L-DOPA, benserazide, trihexyphenidyl"}, "[9]": {"details": "Clinical Test 1, 5th day, with L-DOPA, benserazide, trihexyphenidyl"}}, "note": "Where two headings read alike, the source gives them in different places."}
{"compound": "N[C@H](C(=O)O)[C@H](O)c1ccc(O)c(O)c1", "note": "(relative stereo) [DL-threo-DOPS]", "values": [{"measurement": "behavior and expression", "setting": "[1]; [8]", "result": "more active behavior and expression"}, {"measurement": "difficulty in writing", "setting": "[1]; [8]", "result": "the difficulty in writing had disappeared"}, {"measurement": "speaking", "setting": "[1]; [8]", "result": "speaking more clearly than before"}, {"measurement": "walking", "setting": "[1]; [8]", "result": "much easier"}, {"measurement": "falling down during walking", "setting": "[1]; [9]", "result": "no falling down during walking within rooms and passageways"}, {"measurement": "walking", "setting": "[1]; [9]", "result": "could walk smoothly without any assistance and the steps of the walk became almost normal with wide steps"}, {"measurement": "improvement of the syndrome on maintenance", "setting": "[1]; Clinical Test 1, reduced dose of 9 capsules per day", "result": "the improvement of the syndrome is still continuing"}, {"measurement": "walking and freezing in walking", "setting": "[1]; Clinical Test 2, DL-threo-DOPS 1,800 mg and carbidopa 90 mg", "result": "the walking was improved and the freezing in walking disappeared"}, {"measurement": "walking", "setting": "[1]; Clinical Test 2, several days after reaching DL-threo-DOPS 1,800 mg and carbidopa 90 mg", "result": "the walking became almost normal"}, {"measurement": "shortening of transit time compared to before administration", "setting": "parkinson's disease [2]; 4 hours after DL-threo-DOPS 600 mg and carbidopa 60 mg", "result": "about 170 msec"}, {"measurement": "time of peak effect on transit time after administration", "setting": "parkinson's disease [2]; DL-threo-DOPS 600 mg and carbidopa 60 mg", "result": 4, "unit": "h"}, {"measurement": "transit time compared with L-DOPA combination", "setting": "parkinson's disease [2]; vs 2 hours after L-DOPA 100 mg, benserazide 25 mg, trihexyphenidyl hydrochloride 2 mg", "result": "shorter than the transit time measured at 2 hours after administration of L-DOPA"}, {"measurement": "tremor of the right upper arm at the static state", "setting": "parkinson's disease [3]; FIG. 2", "result": "remarkably decreased or improved"}, {"measurement": "rigidity (stiffness) of the extensor muscle of the right forearm", "setting": "parkinson's disease [3]; FIG. 3", "result": "remarkably decreased and improved"}, {"measurement": "tonic stretch reflex of the extensor muscle of the right forearm", "setting": "parkinson's disease [3]; FIG. 3", "result": "reduced"}, {"measurement": "skillfulness, flexion and extension movement at the right wrist joint", "setting": "parkinson's disease [3]; FIG. 4", "result": "remarkably improved"}, {"measurement": "rate of decarboxylation relative to DL-erythro-DOPS", "setting": "decarboxylase", "result": "1/10"}, {"measurement": "effect on parkinson's disease", "setting": "parkinson's disease [4]", "result": "ineffective"}, {"measurement": "effect on narcolepsy", "setting": "narcolepsy", "result": "ineffective"}]}
{"compound": "N[C@H](C(=O)O)[C@H](O)c1ccc(O)c(O)c1", "note": "(relative stereo) [threo-DOPS, threo-3,4-dihydroxyphenylserine]", "values": [{"measurement": "serious side effects", "setting": "[5]", "result": "serious side effects were not observed"}, {"measurement": "LD50", "setting": "[6]; ip", "result": "~10000", "unit": "mg/kg"}, {"measurement": "LD50", "setting": "[6]; po", "result": "> 10000", "unit": "mg/kg"}]}
{"compound": "NC(C(=O)O)C(O)c1ccc(O)c(O)c1", "note": "(centres unmarked) [DOPS]", "values": [{"measurement": "decarboxylation to norepinephrine", "setting": "[7]; in vivo and in vitro", "result": "can be decarboxylated"}]}
{"compound": "N[C@@H](Cc1ccc(O)c(O)c1)C(=O)O", "note": "[L-DOPA, L-3,4-dihydroxyphenylalanine, reference compound]", "values": [{"measurement": "stiffness and tremor", "setting": "[1]; Clinical Test 1 patient, earlier L-DOPA 400 mg, benserazide 100 mg, trihexyphenidyl 6 mg daily, oral", "result": "the stiffness and tremor were improved"}, {"measurement": "stiffness and tremor", "setting": "[1]; Clinical Test 1 patient, earlier L-DOPA therapy", "result": "improved the stiffness and tremor remarkably"}, {"measurement": "freezing", "setting": "[1]; Clinical Test 1 patient, increased amount of L-DOPA", "result": "it became worse"}]}
{"compound": "N[C@H](C(=O)O)[C@@H](O)c1ccc(O)c(O)c1", "note": "[L-erythro-DOPS, reference compound]", "values": [{"measurement": "enzymatic decarboxylation of the stereoisomers", "setting": "[7]", "result": "can be decarboxylated"}, {"measurement": "nature of the norepinephrine formed", "setting": "[7]", "result": "not natural"}]}
{"compound": "N[C@H](C(=O)O)[C@H](O)c1ccc(O)c(O)c1", "note": "[L-threo-DOPS]", "values": [{"measurement": "enzymatic decarboxylation of the stereoisomers", "setting": "[7]", "result": "can be decarboxylated"}, {"measurement": "nature of the norepinephrine formed", "setting": "[7]", "result": "confirmed as natural l-norepinephrine"}, {"measurement": "DOPS-induced rise of norepinephrine in the brain", "setting": "brain norepinephrine; combination with decarboxylase inhibitor", "result": "did not enhance"}, {"measurement": "accumulation of norepinephrine in the brain", "setting": "brain norepinephrine; injection into a cerebral ventricle", "result": "remarkable"}, {"measurement": "accumulation of norepinephrine in the brain", "setting": "brain norepinephrine; intraperitoneal administration", "result": "negligible"}, {"measurement": "penetration through B.B.B.", "setting": "brain norepinephrine", "result": "poor penetration"}, {"measurement": "DOPS-induced rise of norepinephrine in the heart", "setting": "heart norepinephrine", "result": "abolished"}]}
